SMILES strings stand for the structures.

The test system of one test is BALB/c mice. Nature of the test: In vivo luciferase quantitation, Example 4 (cationic ionizable lipid pKa>7 LNPs). The settings on record: LIP021 LNPs with LIP001 or without lipid <7 pKa. More on the design: species or system mouse. As for the experimental part:
(§1) The ratio of the sum of ionizable amines and cationic quaternary ammonium ions to mRNA phosphates in the LNP was 6. Lipids were dissolved in ethanol and mRNA was dissolved in 50 mM Citrate buffer pH 5.0. The organic and aqueous phases were combined at a flow rate of 12 mL/min on a Precision Nanosystems NanoAssemblr at a ratio of 3:1 (aqueous: organic). The product was immediately diluted to 16.5% ethanol using MilliQ water. The diluted product was dialyzed against a volume of 50 mM Tris pH 7.5 45 mM NaCl that was 300-fold in excess. The dialyzed product was concentrated using Amicon Ultra 100 kDa centrifuge tubes and sterile filtered. mRNA concentration and encapsulation was assessed by the Invitrogen Ribogreen assay.
LNPs were administered to BALB/c mice via the tail vein at a dose of 0.5 mg/kg. After eighteen hours bioluminescence was measured using an IVIS Spectrum imager. Mice were treated with 150 mg/kg luciferin substrate administered via intraperitoneal injection. Immediately following the in vivo image mice were euthanized and the lung, liver and spleen were harvested for ex vivo imaging.

The next test has as its system B6 albino mice. Briefly: In vivo luciferase quantitation, Example 1 (IVIS, in vivo and ex vivo lung, liver, spleen). More on the design: species or system mouse. The following applies: lipid added at 50 mol % to liver targeting LNPs. As for the experimental part: Luciferase mRNA was formulated in LNPs containing a cationic ionizable lipid LIP001, cholesterol, DSPC, and PEG-DMG, in the presence or absence of the cationic lipid or cationic ionizable lipid pKa>7 according to the following molar ratios:
as §1, with “phosphates” for “phosphates in the LNP”, “200-fold” for “300-fold”
LNPs were administered to B6 albino mice via the tail vein at a dose of 0.3 mg/kg. After six hours bioluminescence was measured using an IVIS Spectrum imager. Mice were treated with 150 mg/kg luciferin substrate administered via intraperitoneal injection. Immediately following the in vivo image mice were euthanized and the lung, liver and spleen were harvested for ex vivo imaging.

As for `CCCCC/C=C\C/C=C\CCCCCCCC(=O)OCC(COC(=O)CCC(OCCCCCCCC)OCCCCCCCC)COC(=O)NCCCN1CCC(O)CC1` (centres unmarked) [LIP021, 3-((4,4-bis(octyloxy)butanoyl)oxy)-2-((((3-(4-hydroxy-piperidin-1-yl)propyl)carbamoyl)oxy)methyl) propyl (9Z,12Z)-octadeca-9,12-dienoate], the “lung targeting, ex vivo bioluminescence (FIG. 10-11)” value with BALB/c mice was “does not exhibit a lung-targeting effect”.

For `CC(C)CCC[C@@H](C)[C@H]1CC[C@H]2[C@@H]3CC=C4C[C@@H](OC(=O)NCCN(C)C)CC[C@]4(C)[C@H]3CC[C@]12C.Cl` [DC Cholesterol, DC- Cholesterol], in the test with B6 albino mice, the “shift of distribution of luciferase expression to the lungs” value is listed as ~40 fold.

The values above are taken from patent publication US20250235411A1, “COMPOSITIONS AND METHODS FOR DELIVERY OF AGENTS” (Kernal Biologics, Inc., priority 2021, published 2025).
